Laboratory results as given in US7595401B2, “Therapeutic compounds and their use in cancer” (Myriad Pharmaceuticals, Inc., priority 2006, dated 2009).

Test system: purified human Hsp90
Assay: Binding Assay: fluorescence polarization with BODIPY-labeled geldanamycin
Settings: 5 μM compound, BODIPY-GM 10 nM, Hsp90 30 nM
In short: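 Compounds in 2% DMSO final compete with 10 nM BODIPY-GM for 30 nM purified human Hsp90, incubated overnight at room temperature in pH 7.3 HEPES buffer containing Na2MoO4 and DTT. Polarization (mP, ex/em 485/530) normalized to DMSO gives percent inhibition; autofluorescence-confounded data excluded.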

Row | % Inhibition at 5 μM Compound Concentration | SMILES
1 | 55% | CC(C)[C@H](NC(=O)OC(C)(C)C)C(=O)N1CCCC(CCn2cnc(N)c3nc(Sc4cc5c(cc4Br)OCO5)nc2-3)C1 (stereo partly drawn) [Example 698, tert-Butyl((1S)-1-{[3-(2-{6-amino-8-[(6-bromo-1,3-benzodioxol-5-yl)thio]-3H-purin-3-yl}ethyl)piperidin-1-yl]carbonyl}-2-methylpropyl)carbamate]
2 | 26% | CO[C@H](C)C(=O)N1CCC(CCn2cnc(N)c3nc(Sc4cc5c(cc4Br)OCO5)nc2-3)CC1 [Example 726, 8-[(6-Bromo-1,3-benzodioxol-5-yl)thio]-3-(2-{1-[(2R)-2-methoxypropanoyl]piperidin-4-yl}ethyl)-3 H-purin-6-amine]

Same assay, conditions: BODIPY-GM 10 nM, Hsp90 30 nM

Row | SMILES | IC50
3 | C[C@H](NC(=O)OC(C)(C)C)C(=O)N1CCC(CCn2c(Sc3cc4c(cc3Br)OCO4)nc3c(N)ncnc32)CC1 [Example 693, [(S)-2-(4-{2-[6-Amino-8-(6-bromo-benzo[1,3]dioxol-5-ylsulfanyl) -purin-9-yl]-ethyl}-piperidin-1-yl)-1-methyl-2-oxo-ethyl]-carbamic acid tert-butyl ester] | 0.059 µM
4 | C[C@@H](NC(=O)OC(C)(C)C)C(=O)N1CCC(CCn2c(Sc3cc4c(cc3Br)OCO4)nc3c(N)ncnc32)CC1 [Example 695, tert-Butyl{(1R)-2-[4-(2-{6-amino-8-[(6-bromo-1,3-benzodioxol-5-yl)thio]-9H-purin-9-yl}ethyl)piperidin-l-yl]-1-methyl-2-oxoethyl}carbamate] | 0.41 µM
5 | CC(C)[C@H](NC(=O)OC(C)(C)C)C(=O)N1CCCC(CCn2c(Sc3cc4c(cc3Br)OCO4)nc3c(N)ncnc32)C1 (stereo partly drawn) [Example 697, tert-Butyl((1S)-1-{[3-(2-{6-amino-8-[(6-bromo-1,3-benzodioxol-5-yl)thio]-9H-purin-9-yl}ethyl)piperidin-1-yl]carbonyl}-2-methylpropyl)-carbamate] | 0.6 µM
6 | CC(C)C[C@H](NC(=O)OC(C)(C)C)C(=O)N1CCC(CCn2c(Sc3cc4c(cc3Br)OCO4)nc3c(N)ncnc32)CC1 [Example 699, tert-Butyl((1S)-1-{[4-(2-{6-amino-8-[(6-bromo-1,3-benzodioxol-5-yl)thio]-9H-purin-9-yl}ethyl)piperidin-1-yl]carbonyl}-3-methylbutyl)carbamate] | 0.6 µM
7 | C[C@@H](NC(=O)OC(C)(C)C)C(=O)N1CCCC(CCn2c(Sc3cc4c(cc3Br)OCO4)nc3c(N)ncnc32)C1 (stereo partly drawn) [Example 701, tert-Butyl{(1R)-2-[3-(2-{6-amino-8-[(6-bromo-1,3-benzodioxol-5-yl)thio]-9H-purin-9-yl}ethyl)piperidin-1-yl]-1-methyl-2-oxoethyl}carbamate] | 0.2 µM
8 | C[C@H](NC(=O)OC(C)(C)C)C(=O)N1CCCC(CCn2c(Sc3cc4c(cc3Br)OCO4)nc3c(N)ncnc32)C1 (stereo partly drawn) [Example 703, tert-Butyl{(1S)-2-[3-(2-{6-amino-8-[(6-bromo-1,3-benzodioxol-5-yl)thio]-9H-purin-9-yl}ethyl)piperidin-1-yl]-1-methyl-2-oxoethyl}carbamate] | 0.19 µM
9 | CC(C)(C)OC(=O)NCC(=O)N1CCC(CCn2c(Sc3cc4c(cc3Br)OCO4)nc3c(N)ncnc32)CC1 [Example 705, tert-Butyl{2-[4-(2-{6-amino-8-[(6-bromo-1,3-benzodioxol-5-yl)thio]-9H-purin-9-yl}ethyl)piperidin-1-yl]-2-oxoethyl}carbamate] | 0.08 µM
10 | CN(C)CC(=O)N1CCC(CCn2c(Sc3cc4c(cc3Br)OCO4)nc3c(N)ncnc32)CC1 [Example 707, 8-[(6-Bromo-1,3-benzodioxol-5-yl)thio]-9-(2-{1-[(dimethylamino)acetyl]piperidin-4-yl}ethyl)-9H-purin-6-amine] | 0.07 µM
11 | CC(C)(C)OC(=O)NC1(C(=O)N2CCC(CCn3c(Sc4cc5c(cc4Br)OCO5)nc4c(N)ncnc43)CC2)CC1 [Example 709, tert-Butyl(1-{[4-(2-{6-amino-8-[(6-bromo-1,3-benzodioxol-5-yl)thio]-9H-purin-9-yl}ethyl)piperidin-1-yl]carbonyl}cyclopropyl)carbamate] | 0.23 µM
12 | CC(C)(C)OC(=O)NC(C)(C)C(=O)N1CCC(CCn2c(Sc3cc4c(cc3Br)OCO4)nc3c(N)ncnc32)CC1 [Example 711] | 0.6 µM

Now from value to molecule:

Row | IC50 | SMILES
13 | 0.495 µM | CC(C)[C@H](NC(=O)OC(C)(C)C)C(=O)N1CCC(CCn2c(Sc3cc4c(cc3Br)OCO4)nc3c(N)ncnc32)CC1 [Example 713, tert-Butyl((1S)-1-{[4-(2-{6-amino-8-[(6-bromo-1,3-benzodioxol-5-yl)thio]-9H-purin-9-yl}ethyl)piperidin-1-yl]carbonyl}-2-methylpropyl)carbamate]
14 | > 2 µM | C[C@@H](C(=O)N1CCC(CCn2c(Sc3cc4c(cc3Br)OCO4)nc3c(N)ncnc32)CC1)N(C)C(=O)OC(C)(C)C [Example 715, tert-Butyl{(1S)-2-[4-(2-{6-amino-8-[(6-bromo-1,3-benzodioxol-5-yl)thio]-9H-purin-9-yl}ethyl)piperidin-1-yl]-1-methyl-2-oxoethyl}methylcarbamate]
15 | 0.2 µM | C[C@H](C(=O)N1CCC(CCn2c(Sc3cc4c(cc3Br)OCO4)nc3c(N)ncnc32)CC1)N(C)C(=O)OC(C)(C)C [Example 717, tert-Butyl{(1R)-2-[4-(2-{6-amino-8-[(6-bromo-1,3-benzodioxol-5-yl)thio]-9H-purin-9-yl}ethyl)piperidin-1-yl]-1-methyl-2-oxoethyl}methylcarbamate]
16 | 0.8 µM | CC(C)C[C@H](NC(=O)OC(C)(C)C)C(=O)N1CCCC(CCn2c(Sc3cc4c(cc3Br)OCO4)nc3c(N)ncnc32)C1 (stereo partly drawn) [Example 719, tert-Butyl((1S)-1-{[3-(2-{6-amino-8-[(6-bromo-1,3-benzodioxol-5-yl)thio]-9H-purin-9-yl}ethyl)piperidin-1-yl]carbonyl}-3-methylbutyl)carbamate]
17 | 0.13 µM | COCC(=O)N1CCC(CCn2c(Sc3cc4c(cc3Br)OCO4)nc3c(N)ncnc32)CC1 [Example 722, 8-[(6-Bromo-1,3-benzodioxol-5-yl)thio]-9-{2-[1-(methoxyacetyl)piperidin-4-yl]ethyl}-9H-purin-6-amine]
18 | 0.105 µM | CO[C@@H](C)C(=O)N1CCC(CCn2c(Sc3cc4c(cc3Br)OCO4)nc3c(N)ncnc32)CC1 [Example 724, 8-[(6-Bromo-1,3-benzodioxol-5-yl)thio]-9-(2-{1-[(2S)-2-methoxypropanoyl]piperidin-4-yl}ethyl)-9H-purin-6-amine]
19 | 0.1 µM | CO[C@H](C)C(=O)N1CCC(CCn2c(Sc3cc4c(cc3Br)OCO4)nc3c(N)ncnc32)CC1 [Example 725, 8-[(6-Bromo-1,3-benzodioxol-5-yl)thio]-9-(2-{1-[(2R)-2-methoxypropanoyl]piperidin-4-yl}ethyl)-9H-purin-6-amine]
20 | 32 µM | CO[C@@H](C)C(=O)N1CCC(CCn2cnc(N)c3nc(Sc4cc5c(cc4Br)OCO5)nc2-3)CC1 [Example 727, 8-[(6-Bromo-1,3-benzodioxol-5-yl)thio]-3-(2-{1-[(2S)-2-methoxypropanoyl]piperidin-4-yl}ethyl)-3 H-purin-6-amine]
21 | 0.2 µM | CC(C)(C)OC(=O)N1CC[C@H]1C(=O)N1CCC(CCn2c(Sc3cc4c(cc3Br)OCO4)nc3c(N)ncnc32)CC1 [Example 728, tert-Butyl(2S)-2-{[4-(2-{6-amino-8-[(6-bromo-1,3-benzodioxol-5-yl)thio]-9H-purin-9-yl}ethyl)piperidin-1-yl]carbonyl}azetidine-1-carboxylate]
